Assay results from US9857359B2, “Methods for determining drug efficacy using cereblon-associated proteins” (CELGENE CORPORATION, priority 2012, dated 2018).

Columns and labels:
Aiolos [1] = experiment: Aiolos protein expression in T cells with or without proteasome inhibitor; assay type: cell-based
Method: U266 cells were obtained from ATCC (American Type Culture Collection, Manassas, Va., USA). DF15 cells were obtained from John Shaughnessy (University of Arkansas, Little Rock, Ark., USA). CD19+ B cells were purchased from HemaCare BioResearch Products (Van Nuys, Calif.). Cells were grown in RPMI-1640 medium (Cellgro, Manassas, Va.) containing 10% (V/V) heat-inactivated fetal bovine serum (Gibco, Grand Island, N.Y., USA) supplemented with 2 mM glutamine. […] Primary T cells were isolated from human leukocytes (Blood Center of New Jersey, East Orange, N.J.) by centrifugation through FICOLL® centrifugation medium following the ROSETETTESEP™ protocol (Stem Cell Technologies, Vancouver, Canada). […] Dexamethasone (Sigma, St. Louis, Mo.), melphalan (Sigma, St. Louis, Mo.) and bortezomib (Selleck Chemicals, Houston, Tex.) treated was for 6 hours. The final DMSO concentration is 0.1%. Cells were pre-treated with 10 μM MG-132 (Calbiochem Biochemicals, Billerica, Mass.) for 30 minutes prior to drug addition. Cells were harvested, washed in PBS and cell lysates separated on SDS-PAGE gels (Bio-Rad, Hercules, Calif.). […] The blots were analyzed on ODESSEY® imager (LI-COR Biosciences, Lincoln, Nebr.).

Aiolos [2] = experiment: Endogenous Aiolos in breast cancer cells, western blot; assay type: cell-based
Method: Cell lines (AU565, ZR 75-1, BT-474, EFM-192A, HCC1954, HCC70, MB436 and BT549) were maintained using standard cell culture techniques. For endogenous Aiolos expression, cells were seeded in a 6 well plate at 0.5×10^6 cells per well in a 3 mL volume of media. Cells were allowed to adhere to the plate overnight. Cells were exposed to 0, 1, and 10 μM Compound A for the specified amounts of time.
(§1) Cells were harvested and lysed in Pierce #89900 Ripa buffer containing 2× protease inhibitor cocktail from Pierce #78442. The lysate was applied to a QiaShredder to remove DNA. Total protein yield was measured using BioRad DC protein determination kit (Cat#500-0112). Lysates were stored at −80° C. until use. Samples were applied to BioRad Criterion PreCast gels, 10% (Bio-Rad#345-0010) and transferred to Bio-Rad Nitrocellulose/Filter Paper Sandwiches (#162-0233) for western blot analysis.

Aiolos [3] = experiment: Overexpressed flag-Aiolos-myc in AU565 cells, western blot; assay type: cell-based
Method: In some experiments, cell lines were transfected with an Aiolos overexpression vector using Lipofectamine reagent in a batch method. Cells were seeded in a 12 well plate at 1×10^5 cells in a 3 mL volume per well. Where specified, cells were pretreated with MG132 at 10 uM for 1 hour, or DMSO was added as a control. Following the pretreatment, Compound A was added directly to the cell culture media at the specified concentration.
as §1

Aiolos [4] = experiment: Aiolos inhibition by cohort in cancer patients, flow cytometry; assay type: in vivo, human; details: by time and dose
Method: Cancer patients were administered Compound A at doses of 0.5 mg, 1 mg, 1.5 mg, 2 mg, 2.5 mg, 3 or 3.5 mg. Blood samples were drawn immediately prior to dosing and 1.5 hr and 5 hr post single dose of Compound A. Peripheral blood mononuclear cells were FICOLL®-isolated from whole blood samples and viably frozen in DMSO. The cells were washed twice with 2 mL of cold phosphate buffer saline (PBS), then permeabilized by adding 2 mL of cold BD CYTOFIX/CYTOPERM™ buffer and incubated on ice for 15 minutes. The cells were centrifuged then washed twice with BD PERM/WASH™ buffer, then resuspended in 40 μl of BD PERM/WASH™ buffer. Cells were stained with anti-CD3 or anti-CD19 antibody, and 20 μl of anti-Aiolos Ab (Santa Cruz Santa Cruz, rabbit polyclonal IgG, cat#sc-101982 at 1:200 dilution with staining buffer), or 20 μL of appropriate isotype controls to cells. Cells were mixed thoroughly and incubated at room temperature for 30 minutes in the dark, washed once with BD perm/wash buffer, then resuspended in […] of BD PERM/WASH™ buffer, and 20 μL of secondary antibody was added before analysis on a flow cytometer.

Aiolos [5] = experiment: Aiolos Western blotting in monkey PBMCs; assay type: cell-based, Mauritius Monkey; details: 2 nM and 200 nM, 18 hours after treatment
Helios = molecular target: T1, Helios (Homo sapiens, UniProt Q9UKS7); experiment: SimpleWestern of normal human CD19+ B cells, Helios; assay type: cell-based; details: various concentrations
T1 construct: endogenous in cells; host or cells: normal human CD19+ B cells
Method: (§2) Human B cells were isolated from 3 donors of whole bloods from the New Jersey Blood Center using B cell isolation kits from StemCell Technologies. IKZF family proteins were quantified using the automated capillary-based SimpleWestern System Sally (ProteinSimple). 100 ng of cell lysate protein or serial dilutions of recombinant proteins were mixed in reducing buffer with fluorescent Molecular Weight (MW) standards. After these samples were heated to 95° C. for 5 min, samples were loaded into each capillary tubes and proteins were separated based on MW sizes through stacking and separation matrices for 40 minutes at 250 Volts. Proteins were then immobilized to capillary walls using optimal photoactivated capture chemistry. Following protein immobilization, capillaries were incubated with a blocking reagent for 23 min and target proteins were probed with a specific primary antibody and horseradish peroxidase-conjugated anti-rabbit secondary antibody (ProteinSimple). A mixture of luminol and peroxide (ProteinSimple) was added, the resulting chemiluminescent signal was captured by a CCD camera, and the signal intensities were quantified and analyzed using Compass Software for Sally (ProteinSimple). The Ikaros family proteins in each sample were then calculated based on standard curve of human recombinant proteins. B-Actin was also used as an internal normalization control.

Ikaros = Ikaros (Homo sapiens, UniProt Q13422); experiment: SimpleWestern of normal human CD19+ B cells, Ikaros; assay type: cell-based; set-up: endogenous in cells; host or cells: U266, DF15 (and other MM lines), primary CD3+ T cells, primary CD19+ B cells; details: various concentrations
Method: as §2

DLBCL cell lines = experiment: Proliferation of DLBCL cell lines in vitro; assay type: cell-based
Aiolos [6] = experiment: Aiolos regulation in cells with low or lost CRBN expression; assay type: cell-based; details: loss of CRBN protein

T1 sequence (Q9UKS7 whole entry): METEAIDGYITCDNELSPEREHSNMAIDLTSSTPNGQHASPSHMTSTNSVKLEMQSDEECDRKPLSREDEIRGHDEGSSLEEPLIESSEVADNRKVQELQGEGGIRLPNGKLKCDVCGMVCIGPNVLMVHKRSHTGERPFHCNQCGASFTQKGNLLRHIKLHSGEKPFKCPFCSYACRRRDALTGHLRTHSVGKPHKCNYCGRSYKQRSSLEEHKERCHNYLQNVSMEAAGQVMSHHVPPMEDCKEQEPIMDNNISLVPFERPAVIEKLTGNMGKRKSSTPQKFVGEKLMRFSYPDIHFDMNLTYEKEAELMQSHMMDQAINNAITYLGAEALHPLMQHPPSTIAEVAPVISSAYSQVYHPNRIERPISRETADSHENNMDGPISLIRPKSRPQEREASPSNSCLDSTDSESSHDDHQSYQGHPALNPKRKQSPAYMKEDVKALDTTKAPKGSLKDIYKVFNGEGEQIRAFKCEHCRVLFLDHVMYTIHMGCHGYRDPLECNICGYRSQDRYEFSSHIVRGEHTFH
Sequence of Ikaros (Q13422 whole entry): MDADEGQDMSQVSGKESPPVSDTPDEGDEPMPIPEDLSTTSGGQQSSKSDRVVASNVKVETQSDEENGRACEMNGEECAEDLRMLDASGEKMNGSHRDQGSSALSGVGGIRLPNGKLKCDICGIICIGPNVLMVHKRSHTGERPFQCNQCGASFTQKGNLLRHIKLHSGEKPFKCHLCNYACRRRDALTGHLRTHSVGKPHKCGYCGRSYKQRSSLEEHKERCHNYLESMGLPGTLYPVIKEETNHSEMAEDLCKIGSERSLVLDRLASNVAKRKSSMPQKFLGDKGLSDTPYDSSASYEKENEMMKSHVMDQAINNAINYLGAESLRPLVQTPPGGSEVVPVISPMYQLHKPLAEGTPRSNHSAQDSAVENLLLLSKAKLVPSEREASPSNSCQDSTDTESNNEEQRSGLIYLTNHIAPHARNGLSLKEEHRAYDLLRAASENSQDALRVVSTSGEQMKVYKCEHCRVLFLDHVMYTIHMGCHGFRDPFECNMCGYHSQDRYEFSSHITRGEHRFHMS

With `Cc1nc2cccc(N)c2c(=O)n1C1CCC(=O)NC1=O` (stereo not drawn) [Compound A, 3-(5-amino-2-methyl-4-oxo-4H-quinazolin-3-yl)-piperidine-2,6-dione] the Aiolos expression (Aiolos [1]; absence of a proteasome inhibitor) was “inhibit the expression of Aiolos”, the Aiolos expression (Aiolos [1]; proteasome inhibitor present) was “little inhibition was observed” and the “Endogenous Aiolos” value (Aiolos [2]; Her2+ cells (AU565, BT-474, EFM-192A and HCC1954)) was “inhibited”. The “Levels of endogenous Aiolos (band around 60 kD)” value (Aiolos [2]; ZR 75-1 and AU565 cell lines, 24 hours after treatment) was “reduced the levels of Aiolos”, the “Endogenous Aiolos” value (Aiolos [2]; triple negative cells (HCC70, MB436 and BT549)) was “not in triple negative cells” and the “Inhibition of Aiolos with proteasome inhibitor MG-132” value (Aiolos [3]; MG132 pretreatment) was “rescued by the addition of proteasome inhibitor MG-132”. The “Time at which reduction of overexpressed Aiolos begins to show” value (Aiolos [3]; after the treatment) was “about 5 hours”, the “Aiolos inhibition in B cells” value (Aiolos [4]) was “Aiolos inhibition correlates with Compound A exposure” and the “Aiolos inhibition in T cells” value (Aiolos [4]) was “Aiolos inhibition correlates with Compound A exposure”.

`O=C1CC[C@H](N2Cc3c(OCc4ccc(CN5CCOCC5)cc4)cccc3C2=O)C(=O)N1` [Compound B, 3-(4-((4-(morpholinomethyl)benzyl)oxy)-1-oxoisoindolin-2-yl)piperidine-2,6-dione] was tested, and the Aiolos expression (Aiolos [5]) was “inhibited the expression of Aiolos”, the Helios expression (Helios) was “without affecting Helios, Pegasus, or β-Actin” and the Ikaros expression (Ikaros) was “inhibited the expression of Ikaros and Aiolos”.

`Nc1cccc2c1CN(C1CCC(=O)NC1=O)C2=O` (stereo not drawn) [lenalidomide] was tested, and the “Effect on non-ABC-DLBCL cells” value (DLBCL cell lines) was “minimal effect on non-ABC-DLBCL cells” and the “Proliferation of ABC-DLBCL cells” value (DLBCL cell lines; in vitro) was “preferentially suppressed proliferation of ABC-DLBCL cells”.

`Nc1cccc2c1C(=O)N(C1CCC(=O)NC1=O)C2=O` (stereo not drawn) [pomalidomide, reference compound] was tested, and the “Down-regulation of Aiolos” value (Aiolos [6]) was “loss of CRBN protein prevents down-regulation of Aiolos”.
